In patent publication US10550105B2 (Ribon Therapeutics Inc., priority 2018, dated 2020):

Target: PARP7 (Homo sapiens (Human), UniProt Q7Z3E1)
Experiment: Enzymatic assay for inhibition of PARP7: TR-FRET displacement of biotinylated Probe A from the TIPARP active site
Type: binding
Settings: Table A-1
How it was run: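 Displacement of biotinylated Probe A from TIPARP was measured as the 665/615 nm time-resolved FRET ratio (excitation 320 nm, 90 μs delay) after a further 30 min at 25 °C. Inhibition across compound concentrations was fitted by dose-response regression, with the Hill slope free or fixed at 1 (3-parameter fit).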

PARP7, sequence (Q7Z3E1 whole entry): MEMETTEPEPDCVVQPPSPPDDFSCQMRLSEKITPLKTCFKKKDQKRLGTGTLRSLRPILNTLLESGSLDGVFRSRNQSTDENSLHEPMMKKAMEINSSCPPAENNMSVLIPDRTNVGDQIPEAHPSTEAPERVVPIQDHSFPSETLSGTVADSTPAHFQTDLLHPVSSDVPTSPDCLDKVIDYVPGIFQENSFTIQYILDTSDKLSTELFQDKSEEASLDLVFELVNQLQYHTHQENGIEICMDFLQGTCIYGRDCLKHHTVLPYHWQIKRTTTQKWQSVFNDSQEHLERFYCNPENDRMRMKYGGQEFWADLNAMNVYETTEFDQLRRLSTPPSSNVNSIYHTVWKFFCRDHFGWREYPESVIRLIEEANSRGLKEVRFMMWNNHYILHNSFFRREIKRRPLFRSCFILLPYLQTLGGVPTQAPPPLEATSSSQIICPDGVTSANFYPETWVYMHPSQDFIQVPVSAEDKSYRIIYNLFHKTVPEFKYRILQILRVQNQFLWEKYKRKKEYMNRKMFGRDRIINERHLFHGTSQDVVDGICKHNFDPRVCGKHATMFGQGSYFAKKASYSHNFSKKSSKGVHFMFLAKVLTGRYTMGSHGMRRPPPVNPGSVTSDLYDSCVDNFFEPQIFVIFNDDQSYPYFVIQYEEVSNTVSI

| Compound | IC50 [nM] |
| --- | --- |
| O=c1[nH]ncc(N2Cc3cccnc3C2)c1C(F)(F)F [Example 236, 5-(5,7-Dihydro-6H-pyrrolo[3,4-b]pyridin-6-yl)-4-(trifluoromethyl)pyridazin-3(2H)-one] | < 100 |
| Cc1c(N2Cc3cccc(OCCO)c3C2)cn[nH]c1=O [Example 171, 5-(4-(2-Hydroxyethoxy)isoindolin-2-yl)-4-methylpyridazin-3(2H)-one] | ≥ 1000 |
| CN(C)CCOc1cc2c(cc1F)CN(c1cn[nH]c(=O)c1C(F)(F)F)C2 [Example 14, 5-[5-[2-(dimethylamino)ethoxy]-6-fluoro-2,3-dihydro-1H-isoindol-2-yl]-4-(trifluoromethyl)-2,3-dihydropyridazin-3-one; formic acid] | < 100 |
| N#Cc1ccc(N2CCN(C(=O)c3cccc(OC[C@@H]4CCCN4c4cn[nH]c(=O)c4C(F)(F)F)c3)CC2)nc1 [Example 32, 6-[4-[(3-[[(2S)-1-[6-Oxo-5-(trifluoromethyl)-1,6-dihydropyridazin-4-yl]pyrrolidin-2-yl]methoxy]phenyl)carbonyl]piperazin-1-yl]pyridine-3-carbonitrile] | < 100 |
| N#Cc1ccc(N2CCN(C(=O)C[C@H]3CC[C@H](COc4cn[nH]c(=O)c4C(F)(F)F)N3)CC2)nc1 [Example 638, 6-(4-(2-((2R,5R)-5-(((6-Oxo-5-(trifluoromethyl)-1,6-dihydropyridazin-4-yl)oxy)methyl)pyrrolidin-2-yl)acetyl)piperazin-1-yl)nicotinonitrile] | 100 to 1000 |
| O=c1[nH]ncc(N2Cc3cccc(NC4CCOCC4)c3C2)c1C(F)(F)F [Example 290, 5-(4-((Tetrahydro-2H-pyran-4-yl)amino)isoindolin-2-yl)-4-(trifluoromethyl)pyridazin-3(2H)-one] | 100 to 1000 |
| O=C(CCOC[C@@H]1c2ccccc2CN1c1cn[nH]c(=O)c1Cl)N1CCN(c2ncc(C(F)(F)F)cn2)CC1 [Example 415, (S)-4-Chloro-5-(1-((3-oxo-3-(4-(5-(trifluoromethyl)pyrimidin-2-yl)piperazin-1-yl)propoxy)methyl)isoindolin-2-yl)pyridazin-3(2H)-one] | < 100 |
| N#Cc1ccc(N2CCN(C(=O)c3cncc(OC[C@@H]4c5ccccc5CN4c4cn[nH]c(=O)c4C(F)(F)F)n3)CC2)nc1 (single isomer, unassigned) [Example 72 Isomer A] | < 100 |
| CN1CCC(Oc2cc3c(cc2F)CN(c2cn[nH]c(=O)c2C(F)(F)F)C3)C1 (stereo not shown) [Example 55, 5-[5-fluoro-6-[(1-methylpyrrolidin-3-yl)oxy]-2,3-dihydro-1H-isoindol-2-yl]-4-(trifluoromethyl)-2,3-dihydropyridazin-3-one] | < 100 |
| N#Cc1ccc(N2CCN(C(=O)C[C@@H]3CC[C@@H](COc4cn[nH]c(=O)c4Cl)O3)CC2)nc1 (single isomer, unassigned) [Example 582 Isomer A] | ≥ 1000 |
| N#Cc1ccc(N2CCN(C(=O)CCCOCC3c4ccccc4CN3c3cn[nH]c(=O)c3C(F)(F)F)CC2)nc1 (stereo not shown) [Example 408, 6-(4-(4-((2-(6-Oxo-5-(trifluoromethyl)-1,6-dihydropyridazin-4-yl)isoindolin-1-yl)methoxy)butanoyl)piperazin-1-yl)nicotinonitrile] | < 100 |
| COc1ccc2c(c1)CN(c1cn[nH]c(=O)c1C)C2 [Example 173, 5-(5-Methoxyisoindolin-2-yl)-4-methylpyridazin-3(2H)-one] | 100 to 1000 |
| C[C@@H](COCCC(=O)N1CCN(c2ccc(Cl)cn2)CC1)Oc1cn[nH]c(=O)c1C(F)(F)F (single isomer, unassigned) [Example 539 Isomer A] | < 100 |

Now from value to compound:

| IC50 [nM] | Compound |
| --- | --- |
| < 100 | N#Cc1cccnc1N1CCN(C(=O)c2cccc(OC[C@@H]3c4ccccc4CN3c3cn[nH]c(=O)c3C(F)(F)F)c2)CC1 [Example 359, (S)-2-(4-(3-((2-(6-Oxo-5-(trifluoromethyl)-1,6-dihydropyridazin-4-yl)isoindolin-1-yl)methoxy)benzoyl)piperazin-1-yl)nicotinonitrile] |
| < 100 | N#Cc1ccc(N2CCN(C(=O)CCNCCOc3cccc4c3CN(c3cn[nH]c(=O)c3C(F)(F)F)C4)CC2)nc1 [Example 492, 6-(4-(3-((2-((2-(6-Oxo-5-(trifluoromethyl)-1,6-dihydropyridazin-4-yl)isoindolin-4-yl)oxy)ethyl)amino)propanoyl)piperazin-1-yl)nicotinonitrile] |
| < 100 | N#Cc1ccc(N2CCN(C(=O)c3ccc(OCCOc4cccc5c4CN(c4cn[nH]c(=O)c4C(F)(F)F)C5)cc3)CC2)nc1 [Example 43, 6-[4-([4-[2-([2-[6-oxo-5-(trifluoromethyl)-1,6-dihydropyridazin-4-yl]-2,3-dihydro-1H-isoindol-4-yl]oxy)ethoxy]phenyl]carbonyl)piperazin-1-yl]pyridine-3-carbonitrile] |
| < 100 | O=C(C[C@H]1CC[C@H](CNc2cn[nH]c(=O)c2C(F)(F)F)O1)N1CCN(c2ncc(Cl)cn2)CC1 (single isomer, unassigned) [Example 567 Isomer D] |
| < 100 | C[C@@H](COCCC(=O)N1CCN(c2ncc(C(F)(F)F)cn2)C[C@@H]1C)Nc1cn[nH]c(=O)c1C(F)(F)F (single isomer, unassigned) [Example 619 Isomer A] |
| < 100 | CC(=O)N1CCC(COc2cc3c(cc2F)CN(c2cn[nH]c(=O)c2C(F)(F)F)C3)CC1 [Example 21, 5-[5-[(1-acetylpiperidin-4-yl)methoxy]-6-fluoro-2,3-dihydro-1H-isoindol-2-yl]-4-(trifluoromethyl)-2,3-dihydropyridazin-3-one] |
| < 100 | O=C(c1cccc(OC[C@@H]2c3ccccc3CN2c2cn[nH]c(=O)c2C(F)(F)F)c1)N1CCN(c2ncc(C(F)(F)F)cn2)CC1 [Example 390, (S)-4-(Trifluoromethyl)-5-(1-((3-(4-(5-(trifluoromethyl)pyrimidin-2-yl)piperazine-1-carbonyl)phenoxy)methyl)isoindolin-2-yl)pyridazin-3(2H)-one] |
| < 100 | CC[C@@H](COCCC(=O)N1CCN(c2ncc(Cl)cn2)CC1)Oc1cn[nH]c(=O)c1Br [Example 727, (S)-4-Bromo-5-((1-(3-(4-(5-chloropyrimidin-2-yl)piperazin-1-yl)-3-oxopropoxy)butan-2-yl)oxy)pyridazin-3(2H)-one] |
| < 100 | C[C@@H](COCCC(=O)N1CCN(c2ncc(C(C)(C)C)cn2)CC1)Nc1cn[nH]c(=O)c1C(F)(F)F [Example 623, (S)-5-((1-(3-(4-(5-(Tert-butyl)pyrimidin-2-yl)piperazin-1-yl)-3-oxopropoxy)propan-2-yl)amino)-4-(trifluoromethyl)pyridazin-3(2H)-one] |
| < 100 | CC(Oc1cccc2c1CN(c1cn[nH]c(=O)c1C(F)(F)F)C2)c1ccncc1 (stereo not shown) [Example 252, 5-(4-(1-(Pyridin-4-yl)ethoxy)isoindolin-2-yl)-4-(trifluoromethyl)pyridazin-3(2H)-one] |
| < 100 | N#Cc1ccc(N2CCN(C(=O)COCC[C@@H]3CCCN3c3cn[nH]c(=O)c3C(F)(F)F)CC2)nc1 [Example 88, (S)-6-(4-(2-(2-(1-(6-oxo-5-(trifluoromethyl)-1,6-dihydropyridazin-4-yl)pyrrolidin-2-yl)ethoxy)acetyl)piperazin-1-yl)nicotinonitrile] |
| < 100 | N#Cc1ccc(N2CCN(C(=O)CCOCCOc3cn[nH]c(=O)c3C(F)(F)F)CC2)nc1 [Example 501, 6-[4-[3-(2-[[6-Oxo-5-(trifluoromethyl)-1,6-dihydropyridazin-4-yl]oxy]ethoxy)propanoyl]piperazin-1-yl]pyridine-3-carbonitrile] |
